Test results taken from ChEMBL document CHEMBL4190243, “Natural alkaloids as P-gp inhibitors for multidrug resistance reversal in cancer” (Eur J Med Chem, 2017).

Assays:
[1] = test system: KB-V1; assay: Downregulation of P-gp expression in human MDR KBV1 cells after 24 hrs relative to control; format: functional
[2] = Half life in rat at 50 mg/kg, po by LC-MS/MS method; format: ADME, organism-based; settings: in vivo
[3] = test system: NCI/ADR-RES; assay: Potentiation of doxorubicin-induced antitumor activity against human MCF7/ADR cells xenografted in nude mouse assessed as tumor growth inhibition at 30 mg/kg, ip every two days (reference value: -20%); format: functional; settings: 48 h, read-out: TGI
[4] = Tmax in rat at 50 mg/kg, po by LC-MS/MS method; format: ADME, organism-based; settings: in vivo
[5] = test system: Rattus norvegicus; assay: AUC (0 to 72 hrs) in rat at 50 mg/kg, po by LC-MS/MS method; format: ADME, organism-based; parameters: time < 72 hr, dose 50 mg/kg, route oral; settings: in vivo
[6] = Half life in patient with advanced stage of cancer at 500 mg/m2 by HPLC method; format: ADME, organism-based; settings: human, in vivo
[7] = species: Homo sapiens; assay: Inhibition of P-gp in human MCF7/DOX cells assessed as potentiation of doxorubicin-induced cytotoxicity by measuring fold reduction in doxorubicin IC50 at 2.5 uM; format: cell-based
[8] = species: Homo sapiens; assay: Inhibition of P-gp in human MCF7/DOX cells assessed as potentiation of doxorubicin-induced cytotoxicity by measuring fold reduction in doxorubicin IC50 at 5 uM; format: cell-based
[9] = Cmax in rat at 50 mg/kg, po by LC-MS/MS method; format: ADME, organism-based; parameters: dose 50 mg/kg, route oral; settings: in vivo
[10] = Potentiation of vincristine-induced antitumor activity against human KBv200 cells xenografted in Balb/c nude mouse assessed as tumor growth inhibition at 30 mg/kg, ip every two days (reference value: 20%); format: functional; settings: 48 h, read-out: TGI
[11] = Potentiation of paclitaxel-induced antitumor activity against human KBv200 cells in xenograft model assessed as tumor growth inhibition at 35 mg/kg, ip (reference value: 13%); format: functional; settings: read-out: TGI
[12] = Inhibition of P-gp in human MCF7/DX1 cells assessed as BODIPY-FL-verapamil accumulation after 30 to 40 mins by FACS analysis; format: cell-based
[13] = Inhibition of P-gp in human MCF7/DX1 cells assessed as […] Rh123 accumulation after 30 to 40 mins by FACS analysis; format: cell-based
[14] = Inhibition of P-gp in human MCF7/DX1 cells assessed as doxorubicin accumulation after 30 to 40 mins by FACS analysis; format: cell-based
[15] = Inhibition of [125I]IAAP labeling to human P-gp expressed in baculovirus infected insect cell membranes after 10 mins
[16] = Inhibition of P-gp in human MCF7/DX1 cells assessed as [3H]daunomycin accumulation after 40 mins by liquid scintillation counting method; format: cell-based
[17] = Inhibition of P-gp in rat AS30-D/COL10 cell plasma membrane vesicles assessed as reduction in [3H]VBL transport
[18] = Inhibition of P-gp ATPase activity in rat AS30-D/COL10 cell plasma membrane vesicles
[19] = test system: P388; assay: Potentiation of doxorubicin-induced antitumor activity against mouse P388/DOX25 cells implanted in mouse assessed as increase in mouse survival at 1.6 mg/kg, ip; format: functional
[20] = Tmax in male Sprague-Dawley rat at 50 mg/kg, po by LC-MS/MS method; format: ADME, organism-based; settings: in vivo
[21] = Potentiation of epirubicin-induced antitumor activity against human KBv200 cells in xenograft model assessed as tumor growth inhibition at 10 mg/kg, ip (reference value: 29%); format: functional; settings: read-out: TGI
[22] = test system: Homo sapiens; assay: AUC in healthy human at 30 mg/kg, iv by LC-MS/MS method; format: ADME, organism-based; settings: in vivo
[23] = Potentiation of doxorubicin-induced antitumor activity against human KBv200 cells xenografted in Balb/c nude mouse assessed as tumor growth inhibition at 10 mg/kg, ip once daily for 12 days (reference value: 11.6%); format: functional; settings: 288 h, read-out: TGI
[24] = test system: Rattus norvegicus; assay: AUC (0 to 72 hrs) in male Sprague-Dawley rat at 50 mg/kg, po by LC-MS/MS method; format: ADME, organism-based; parameters: dose 50 mg/kg, time < 72 hr, route oral; settings: in vivo
[25] = Tmax in female Sprague-Dawley rat at 50 mg/kg, po by LC-MS/MS method; format: ADME, organism-based; settings: in vivo
[26] = test system: Rattus norvegicus; assay: AUC (0 to 72 hrs) in female Sprague-Dawley rat at 50 mg/kg, po by LC-MS/MS method; format: ADME, organism-based; parameters: time < 72 hr, dose 50 mg/kg, route oral; settings: in vivo
[27] = Half life in male Sprague-Dawley rat at 50 mg/kg, po by LC-MS/MS method; format: ADME, organism-based; settings: in vivo
[28] = Cmax in female Sprague-Dawley rat at 50 mg/kg, po by LC-MS/MS method; format: ADME, organism-based; parameters: dose 50 mg/kg, route oral; settings: in vivo
[29] = Cmax in male Sprague-Dawley rat at 50 mg/kg, po by LC-MS/MS method; format: ADME, organism-based; parameters: dose 50 mg/kg, route oral; settings: in vivo
[30] = Cytotoxicity against human KBv200 cells after 72 hrs by MTT assay; format: functional, cell-based; settings: KBv200, 72 h
[31] = Terminal phase half life in healthy human at 30 mg/kg, iv by LC-MS/MS method; format: ADME, organism-based; settings: in vivo, read-out: beta t1/2 (converted)
[32] = Half life in female Sprague-Dawley rat at 50 mg/kg, po by LC-MS/MS method; format: ADME, organism-based; settings: in vivo
[33] = Primary phase half life in healthy human at 30 mg/kg, iv by LC-MS/MS method; format: ADME, organism-based; settings: in vivo, read-out: alphat1/2
[34] = Potentiation of vinblastine-induced antitumor activity against human KB-8-5 cells xenografted in Ncr nude mouse assessed as growth inhibition at 0.13 mmol/kg by hallow fiber assay; format: functional; settings: read-out: GI
[35] = Displacement of [3H]vinblastine from P-gp in human KBV1 cell membrane vesicles; format: cell membranes
[36] = test system: KB-V1; assay: Potentiation of vinblastine-induced antitumor activity against human KBV1 cells xenografted in Ncr nude mouse assessed as growth inhibition at 0.13 mmol/kg by hallow fiber assay; format: functional; settings: read-out: GI
[37] = test system: KB-V1; assay: Potentiation of vinblastine-induced antitumor activity against human KBV1 cells xenografted in Ncr nude mouse assessed as growth inhibition at 0.136 mmol/kg by hallow fiber assay; format: functional; settings: read-out: GI
[38] = biological target: MRP2 (ABCC2) (Homo sapiens, UniProt Q92887); assay: Inhibition of MRP2 in human Caco2 cells assessed as reduction in pravastatin sodium efflux at 4 uM relative to control; format: cell-based; settings: Caco-2 cells, probe pravastatin sodium
Sequence of MRP2 (ABCC2) (Q92887 whole entry): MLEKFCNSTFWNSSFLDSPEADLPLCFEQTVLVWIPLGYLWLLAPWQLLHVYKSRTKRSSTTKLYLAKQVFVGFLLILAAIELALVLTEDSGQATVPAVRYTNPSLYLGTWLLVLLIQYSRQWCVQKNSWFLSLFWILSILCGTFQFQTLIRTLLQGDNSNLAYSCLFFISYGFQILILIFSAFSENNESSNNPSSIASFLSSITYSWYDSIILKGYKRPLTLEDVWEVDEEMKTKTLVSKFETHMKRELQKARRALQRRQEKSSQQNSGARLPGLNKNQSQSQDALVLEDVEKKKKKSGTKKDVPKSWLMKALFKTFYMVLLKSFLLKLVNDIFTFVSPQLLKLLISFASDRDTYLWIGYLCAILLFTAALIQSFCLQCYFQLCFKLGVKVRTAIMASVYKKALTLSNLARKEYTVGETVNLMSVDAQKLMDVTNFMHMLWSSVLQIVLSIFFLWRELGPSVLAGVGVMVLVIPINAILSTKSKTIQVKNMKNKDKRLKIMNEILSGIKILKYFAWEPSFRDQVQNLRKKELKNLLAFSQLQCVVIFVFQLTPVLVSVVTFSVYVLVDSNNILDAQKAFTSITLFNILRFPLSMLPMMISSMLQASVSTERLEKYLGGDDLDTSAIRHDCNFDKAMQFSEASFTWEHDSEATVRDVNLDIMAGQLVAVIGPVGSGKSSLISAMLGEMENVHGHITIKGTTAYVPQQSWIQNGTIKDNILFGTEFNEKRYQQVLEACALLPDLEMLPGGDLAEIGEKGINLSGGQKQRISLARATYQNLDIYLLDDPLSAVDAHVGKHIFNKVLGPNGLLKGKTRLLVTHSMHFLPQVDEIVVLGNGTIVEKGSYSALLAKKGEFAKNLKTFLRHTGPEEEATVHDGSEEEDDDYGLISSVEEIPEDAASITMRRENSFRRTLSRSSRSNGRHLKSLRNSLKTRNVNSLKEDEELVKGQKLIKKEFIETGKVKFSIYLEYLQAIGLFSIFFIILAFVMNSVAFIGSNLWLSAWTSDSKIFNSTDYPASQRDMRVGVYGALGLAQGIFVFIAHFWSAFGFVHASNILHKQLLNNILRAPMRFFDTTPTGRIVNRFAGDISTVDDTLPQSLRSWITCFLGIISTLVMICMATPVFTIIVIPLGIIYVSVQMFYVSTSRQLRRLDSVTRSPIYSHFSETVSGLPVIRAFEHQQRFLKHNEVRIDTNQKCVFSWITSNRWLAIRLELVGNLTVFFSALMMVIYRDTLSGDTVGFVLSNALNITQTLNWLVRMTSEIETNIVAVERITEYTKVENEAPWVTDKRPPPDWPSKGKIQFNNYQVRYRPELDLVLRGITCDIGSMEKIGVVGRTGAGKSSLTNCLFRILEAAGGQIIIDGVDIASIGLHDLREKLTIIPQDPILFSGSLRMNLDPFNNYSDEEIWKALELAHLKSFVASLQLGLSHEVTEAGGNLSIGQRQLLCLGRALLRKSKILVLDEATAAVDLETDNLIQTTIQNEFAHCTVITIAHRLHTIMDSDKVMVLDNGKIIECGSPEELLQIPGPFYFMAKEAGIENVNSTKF

[39] = species: Homo sapiens; assay: Inhibition of P-gp in human Caco2 cells assessed as reduction in digoxin efflux at 4 uM relative to control; format: cell-based
[40] = biological target: T1, ATP-dependent translocase ABCB1 (Homo sapiens, UniProt P08183); assay: Inhibition of human MDR1 ATPase activity expressed in baculovirus infected insect cells preincubated for 30 mins followed by ATP addition measured after 20 mins by colorimetric method
T1 sequence (P08183 whole entry): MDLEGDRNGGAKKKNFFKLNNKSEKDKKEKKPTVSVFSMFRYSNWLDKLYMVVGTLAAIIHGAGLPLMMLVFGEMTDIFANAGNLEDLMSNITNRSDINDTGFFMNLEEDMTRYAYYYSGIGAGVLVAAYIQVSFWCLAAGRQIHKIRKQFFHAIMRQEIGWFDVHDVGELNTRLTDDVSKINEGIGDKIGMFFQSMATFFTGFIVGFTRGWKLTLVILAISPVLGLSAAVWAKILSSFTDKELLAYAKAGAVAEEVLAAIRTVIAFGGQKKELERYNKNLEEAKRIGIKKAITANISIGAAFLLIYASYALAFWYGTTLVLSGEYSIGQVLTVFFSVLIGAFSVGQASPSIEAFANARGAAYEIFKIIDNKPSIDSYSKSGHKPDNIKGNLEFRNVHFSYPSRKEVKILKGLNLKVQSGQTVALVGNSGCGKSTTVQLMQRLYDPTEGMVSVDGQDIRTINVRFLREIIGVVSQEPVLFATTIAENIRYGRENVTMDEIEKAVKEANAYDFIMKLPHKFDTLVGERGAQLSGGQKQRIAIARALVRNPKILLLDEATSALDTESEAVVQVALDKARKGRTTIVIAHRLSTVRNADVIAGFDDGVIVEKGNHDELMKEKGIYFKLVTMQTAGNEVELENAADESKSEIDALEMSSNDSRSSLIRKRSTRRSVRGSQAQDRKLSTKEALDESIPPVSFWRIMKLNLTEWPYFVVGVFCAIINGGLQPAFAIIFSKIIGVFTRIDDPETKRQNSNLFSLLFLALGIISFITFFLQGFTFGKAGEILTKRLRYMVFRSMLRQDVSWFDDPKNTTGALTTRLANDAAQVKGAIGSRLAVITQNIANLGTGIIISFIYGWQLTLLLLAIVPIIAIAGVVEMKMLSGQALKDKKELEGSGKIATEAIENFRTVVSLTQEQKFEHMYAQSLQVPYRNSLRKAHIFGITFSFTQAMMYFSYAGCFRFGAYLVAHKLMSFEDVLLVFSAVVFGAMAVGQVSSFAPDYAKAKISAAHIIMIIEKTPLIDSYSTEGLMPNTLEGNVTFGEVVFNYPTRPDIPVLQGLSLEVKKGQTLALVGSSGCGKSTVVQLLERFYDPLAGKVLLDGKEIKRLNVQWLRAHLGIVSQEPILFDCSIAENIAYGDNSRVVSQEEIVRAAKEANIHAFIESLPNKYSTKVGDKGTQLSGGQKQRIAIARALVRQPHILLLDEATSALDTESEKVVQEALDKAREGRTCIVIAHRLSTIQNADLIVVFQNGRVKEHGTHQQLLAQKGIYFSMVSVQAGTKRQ

[41] = biological target: T1, ATP-dependent translocase ABCB1; assay: Inhibition of [125I]IAAP labeling to human MDR1 expressed in baculovirus infected insect cell membranes by electrophoresis method
[42] = biological target: T1, ATP-dependent translocase ABCB1; assay: Displacement of 8-azido[alpha-32P]ATP from human MDR1 expressed in baculovirus infected insect cell membranes by phosphorimaging method
[43] = biological target: T2, Broad substrate specificity ATP-binding cassette transporter ABCG2 (Homo sapiens, UniProt Q9UNQ0); assay: Inhibition of BCRP (unknown origin)
T2 sequence (Q9UNQ0 whole entry): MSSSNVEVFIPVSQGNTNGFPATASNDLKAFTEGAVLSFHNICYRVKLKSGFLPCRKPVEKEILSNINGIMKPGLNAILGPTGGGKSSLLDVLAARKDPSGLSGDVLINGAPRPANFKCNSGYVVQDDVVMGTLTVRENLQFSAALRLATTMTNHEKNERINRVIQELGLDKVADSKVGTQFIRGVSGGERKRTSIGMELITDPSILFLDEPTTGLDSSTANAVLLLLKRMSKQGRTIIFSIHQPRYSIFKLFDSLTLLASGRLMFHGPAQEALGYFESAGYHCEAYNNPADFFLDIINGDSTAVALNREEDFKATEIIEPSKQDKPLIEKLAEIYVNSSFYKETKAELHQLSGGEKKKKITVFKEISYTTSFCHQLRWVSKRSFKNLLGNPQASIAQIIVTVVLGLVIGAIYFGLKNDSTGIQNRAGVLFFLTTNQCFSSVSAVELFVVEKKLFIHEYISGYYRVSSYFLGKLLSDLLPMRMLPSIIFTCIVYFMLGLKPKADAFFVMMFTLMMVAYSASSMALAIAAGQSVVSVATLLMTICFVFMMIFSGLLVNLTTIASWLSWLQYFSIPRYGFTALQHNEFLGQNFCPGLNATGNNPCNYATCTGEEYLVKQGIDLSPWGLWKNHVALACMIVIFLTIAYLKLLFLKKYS

For `CN[C@@H]1C[C@H]2O[C@@](C)([C@@H]1OC)n1c3ccccc3c3c4c(c5c6ccccc6n2c5c31)C(=O)NC4` [STAUROSPORINE], the Activity [1] was 50%.

`COc1ccc2cc1Oc1ccc(cc1)C[C@@H]1c3cc(c(OC)cc3CCN1C)Oc1c(OC)c(OC)cc3c1[C@H](C2)N(C)CC3` [ISOTETRANDRINE] showed a half-life [2] of 1200 min, an inhibition in vivo at 30 mg/kg [3] of 58% and a Tmax [4] of 6 h. For the same molecule, the AUC [5] was 6279 µg/h/L, the half-life [6] was 5 to 7 days and the fold change (FC) [7] was 20. It also gave a fold change (FC) [8] of 20, a Cmax [9] of 237 ng/mL and an inhibition in vivo at 30 mg/kg [10] of 62%. For the same molecule, the inhibition in vivo at 35 mg/kg [11] was 76%.

For `COc1ccc2c3c1O[C@@H]1C[C@H](OC(=O)CCCCCCCCC(=O)O[C@H]4C=C[C@@]56CN(C)CCc7ccc(OC)c(c75)O[C@H]6C4)C=C[C@]31CN(C)CC2`, the IC50 [12] was 500 to 2000 nM, the IC50 [13] was 800 nM and the IC50 [14] was 500 to 2000 nM. It also gave an IC50 [15] of 500 nM and an IC50 [16] of 500 to 2000 nM.

With `C=C[C@]1(C)C[C@@H](OC(=O)CSCCN(CC)CC)[C@]2(C)[C@H](C)CC[C@]3(CCC(=O)[C@H]32)[C@@H](C)[C@@H]1O` [TIAMULIN] the IC50 [17] was 6.2 µM, the IC50 [18] was 540 nM and the survival at 1.6 mg/kg [19] was 29%.

In the case of `COc1ccc2cc1Oc1ccc(cc1)C[C@@H]1c3cc(c(OC)cc3CCN1C)Oc1c(OC)c(OC)c(Br)c3c1[C@H](C2)N(C)CC3`, the Tmax [20] is reported as 3.67 h, the inhibition in vivo at 10 mg/kg [21] is reported as 48% and the AUC [22] is reported as 64 µg/h/L. The inhibition in vivo at 10 mg/kg [23] was 39%, the AUC [24] was 6116 µg/h/L and the Tmax [25] was 4.67 h. The AUC [26] was 21827 µg/h/L, the half-life [27] was 520 min and the Cmax [28] was 835 ng/mL. For the same molecule, the Cmax [29] was 607 ng/mL, the IC50 [30] was 2000 nM and the half-life [31] was 2.17 days. The half-life [32] was 1090 min and the half-life [33] was 30 min.

`COc1cc(/C=C/C(=O)OC2C(O)C3CC(OC(=O)c4cc(OC)c(OC)c(OC)c4)CC2N3C)cc(OC)c1OC` (stereo not drawn) showed an inhibition in vivo at 130 µmol/kg [34] of no more than 75%, a Ki [35] of 7.3 µM and an inhibition in vivo at 130 µmol/kg [36] of no more than 75%. It also gave an inhibition in vivo at 136 µmol/kg [37] of no more than 77.7%.

With `O=C1c2ccccc2-n2c1nc1ccccc1c2=O` [TRYPTANTHRIN] the inhibition at 4 µM [38] was greater than 30% and the inhibition [39] was greater than 30%.

With `Nc1ncnc2c1ncn2[C@@H]1O[C@H](COC(=O)c2ccc(S(=O)(=O)F)cc2)[C@@H](O)[C@H]1O` the IC50 [40] was 210 nM, the IC50 [41] was 170 nM and the IC50 [42] was 680 nM.

For `COC(=O)[C@H]1[C@H]2C[C@@H]3c4[nH]c5cc(OC)ccc5c4CCN3C[C@H]2C[C@@H](OC(=O)c2cc(OC)c(OC)c(OC)c2)[C@@H]1OC` [RESERPINE], the IC50 [43] was 12.6 µM.
